Laboratory results published in ChEMBL document CHEMBL4152250, “Antibacterial and anti-TB tat-peptidomimetics with improved efficacy and half-life” (Eur J Med Chem, 2018).
In brackets after ≈: the same amount, converted by molar mass. Activity calls are given as the source filed them. The calls are words filed in the database; no cut-off is given here. Numbered stars: 1 amine (or outer) side, 2 acyl side, 3 side chain; on linkers, the order of the positions; unused ones are H or OH. Square brackets hold non-standard residues; d marks the D form. Peptide text beside a SMILES is read from it. Pro(N-(CH2)3Gua,cis-4-NH-) = N=C(N)NCCCN1C[C@@H](N[*:1])C[C@H]1C(=O)[*:2]; Pro(cis-4-guanidino) = NC(N)=N[C@@H]1CN[C@H](C(=O)O)C1; βAla = NCCC(=O)O

What was measured:
Escherichia coli [1] = test: Disruption of cell wall in Escherichia coli NCIM 2688 at MIC after 60 mins by transmission electron microscopic method; format: functional, organism-based
Bacillus subtilis = test: Antibacterial activity against Bacillus subtilis NCIM 2079 after 12 hrs by serial dilution method; format: functional, organism-based; conditions: NCIM 2079, 12 h
[2] = system: Staphylococcus epidermidis; test: Antibacterial activity against Staphylococcus epidermidis NCIM 5270 after 12 hrs by serial dilution method; format: functional, organism-based; conditions: NCIM 5270, 12 h
Staphylococcus aureus [3] = test: Disruption of cell wall in Staphylococcus aureus NCIM 2010 at MIC after 60 mins by transmission electron microscopic method; format: functional, organism-based
[4] = system: Mycobacterium tuberculosis; test: Antitubercular activity against active stage of Mycobacterium tuberculosis H37Ra ATCC 25177 after 8 days by XRMA; format: functional, organism-based; conditions: H37Ra ATCC 25177, 192 h
[5] = Cytotoxicity against human HeLa cells assessed as cell viability at 1 to 10 uM after 24 hrs by MTT assay relative to control; format: cell-based; conditions: read-out: Activity
Enterobacter sp. = test: Antibacterial activity against Enterobacter sp. NCIM 5392 after 8 hrs by serial dilution method; format: functional, organism-based; conditions: NCIM 5392, 8 h
Escherichia coli [6] = test: Antibacterial activity against Escherichia coli NCIM 2688 after 8 hrs by serial dilution method; format: functional, organism-based; conditions: NCIM 2688, 8 h
[7] = system: Mycobacterium tuberculosis; test: Antitubercular activity against dormant stage of Mycobacterium tuberculosis H37Ra ATCC 25177 after 12 days by XRMA; format: functional, organism-based; conditions: H37Ra ATCC 25177, 288 h
Staphylococcus aureus [8] = test: Antibacterial activity against Staphylococcus aureus NCIM 2010 after 12 hrs by serial dilution method; format: functional, organism-based; conditions: NCIM 2010, 12 h
Pseudomonas aeruginosa = test: Antibacterial activity against Pseudomonas aeruginosa NCIM 2036 after 8 hrs by serial dilution method; format: functional, organism-based; conditions: NCIM 2036, 8 h

SMILES | Activity (Escherichia coli [1]) | IC50 (Bacillus subtilis) | MIC (Bacillus subtilis) | IC50 [2] | MIC [2] | Activity (Staphylococcus aureus [3]) | IC50 [4] | MIC [4] | viability at 24 h, up to 10 µM [5] | IC50 (Enterobacter sp.) | MIC (Enterobacter sp.) | IC50 (Escherichia coli [6]) | MIC (Escherichia coli [6]) | IC50 [7] | MIC [7] | IC50 (Staphylococcus aureus [8]) | MIC (Staphylococcus aureus [8]) | IC50 (Pseudomonas aeruginosa) | MIC (Pseudomonas aeruginosa)
CC(=O)N[C@@H](Cc1ccccc1)C(=O)NCC(=O)N[C@@H](CCCNC(=N)N)C(=O)N[C@@H](CCCCN)C(=O)N[C@@H](CCCCN)C(=O)N[C@@H](CCCNC(=N)N)C(=O)N[C@@H](CCCNC(=N)N)C(=O)N[C@@H](CCC(N)=O)C(=O)N[C@@H](CCCNC(=N)N)C(=O)N[C@@H](CCCNC(=N)N)C(=O)N[C@H]1C[C@@H](C(=O)NCCC(N)=O)N(CCCNC(=N)N)C1 (Ac-FGRKKRRQRR[Pro(N-(CH2)3Gua,cis-4-NH-)][βAla]-NH2) | Active | 9.3 nM | 3.56 µM (≈ 6.09 µg/mL) | 10 nM | 4.92 µM (≈ 8.42 µg/mL) | Active | 2420 nM | 27.6 µM (≈ 47.2 µg/mL) | ≥ 80% | 13 nM | 18.9 µM (≈ 32.3 µg/mL) | 8 nM | 5.71 µM (≈ 9.77 µg/mL) | 1970 nM | 18.4 µM (≈ 31.5 µg/mL) | 7 nM | 8.47 µM (≈ 14.5 µg/mL) | 9.3 nM | 3.35 µM (≈ 5.73 µg/mL)
CC(=O)N[C@@H](Cc1ccccc1)C(=O)NCC(=O)N[C@@H](CCCNC(=N)N)C(=O)N[C@@H](CCCCN)C(=O)N[C@@H](CCCCN)C(=O)N[C@@H](CCCNC(=N)N)C(=O)N[C@@H](CCCNC(=N)N)C(=O)N[C@@H](CCC(N)=O)C(=O)N[C@@H](CCCNC(=N)N)C(=O)N[C@@H](CCCNC(=N)N)C(=O)N1C[C@@H](NC(=N)N)C[C@H]1C(=O)NCCC(N)=O (Ac-FGRKKRRQRR[Pro(cis-4-guanidino)][βAla]-NH2) |  | 149 nM | 7.96 µM (≈ 13.2 µg/mL) |  |  |  | 9700 nM | 32.1 µM (≈ 53.1 µg/mL) | ≥ 80% |  |  | 92 nM | 6.73 µM (≈ 11.1 µg/mL) | 910 nM | 23.9 µM (≈ 39.5 µg/mL) | 86 nM | 10.9 µM (≈ 18.1 µg/mL) | 70 nM | 10.3 µM (≈ 17 µg/mL)
CC(=O)N[C@@H](Cc1ccccc1)C(=O)NCC(=O)N[C@@H](CCCNC(=N)N)C(=O)N[C@@H](CCCCN)C(=O)N[C@@H](CCCCN)C(=O)N[C@H]1C[C@@H](C(=O)N[C@@H](CCCNC(=N)N)C(=O)N[C@@H](CCC(N)=O)C(=O)N[C@@H](CCCNC(=N)N)C(=O)N[C@@H](CCCNC(=N)N)C(=O)N[C@@H](CCCNC(=N)N)C(=O)NCCC(N)=O)N(CCCNC(=N)N)C1 (Ac-FGRKK[Pro(N-(CH2)3Gua,cis-4-NH-)]RQRRR[βAla]-NH2) |  | 45 nM | 14.1 µM (≈ 24.1 µg/mL) | 14 nM | 8.95 µM (≈ 15.3 µg/mL) |  | 3000 nM | 20.1 µM (≈ 34.4 µg/mL) | ≥ 80% | 14 nM | 4.7 µM (≈ 8.04 µg/mL) | 18 nM | 7.25 µM (≈ 12.4 µg/mL) | 1280 nM | 13.8 µM (≈ 23.6 µg/mL) | 23 nM | 5.25 µM (≈ 8.98 µg/mL) | 5 nM | 2.67 µM (≈ 4.57 µg/mL)
CC(=O)N[C@@H](Cc1ccccc1)C(=O)NCC(=O)N[C@@H](CCCNC(=N)N)C(=O)N[C@@H](CCCCN)C(=O)N[C@@H](CCCCN)C(=O)N1C[C@@H](NC(=N)N)C[C@H]1C(=O)N[C@@H](CCCNC(=N)N)C(=O)N[C@@H](CCC(N)=O)C(=O)N[C@@H](CCCNC(=N)N)C(=O)N[C@@H](CCCNC(=N)N)C(=O)N[C@@H](CCCNC(=N)N)C(=O)NCCC(N)=O (Ac-FGRKK[Pro(cis-4-guanidino)]RQRRR[βAla]-NH2) |  | 344 nM | 29.9 µM (≈ 49.4 µg/mL) |  |  |  | 4450 nM | 28.6 µM (≈ 47.3 µg/mL) | ≥ 80% |  |  | 92 nM | 13.5 µM (≈ 22.3 µg/mL) | 2510 nM | 33.9 µM (≈ 56.1 µg/mL) | 104 nM | 8.65 µM (≈ 14.3 µg/mL) | 47 nM | 6.53 µM (≈ 10.8 µg/mL)
CC(=O)N[C@@H](Cc1ccccc1)C(=O)NCC(=O)N[C@H]1C[C@@H](C(=O)N[C@@H](CCCCN)C(=O)N[C@@H](CCCCN)C(=O)N[C@@H](CCCNC(=N)N)C(=O)N[C@H]2C[C@@H](C(=O)N[C@@H](CCC(N)=O)C(=O)N[C@@H](CCCNC(=N)N)C(=O)N[C@@H](CCCNC(=N)N)C(=O)N[C@H]3C[C@@H](C(=O)NCCC(N)=O)N(CCCNC(=N)N)C3)N(CCCNC(=N)N)C2)N(CCCNC(=N)N)C1 (Ac-FG[Pro(N-(CH2)3Gua,cis-4-NH-)]KKR[Pro(N-(CH2)3Gua,cis-4-NH-)]QRR[Pro(N-(CH2)3Gua,cis-4-NH-)][βAla]-NH2) |  | 10.4 nM | 2.81 µM (≈ 5.12 µg/mL) | 6.5 nM | 9.44 µM (≈ 17.2 µg/mL) |  | 8400 nM | 26.1 µM (≈ 47.5 µg/mL) | ≥ 80% | 24 nM | 8.01 µM (≈ 14.6 µg/mL) | 18 nM | 7.58 µM (≈ 13.8 µg/mL) | 2200 nM | 22.8 µM (≈ 41.5 µg/mL) | 10.4 nM | 9.05 µM (≈ 16.5 µg/mL) | 9.8 nM | 1.82 µM (≈ 3.31 µg/mL)
CC(=O)N[C@@H](Cc1ccccc1)C(=O)NCC(=O)N1C[C@@H](NC(=N)N)C[C@H]1C(=O)N[C@@H](CCCCN)C(=O)N[C@@H](CCCCN)C(=O)N[C@@H](CCCNC(=N)N)C(=O)N1C[C@@H](NC(=N)N)C[C@H]1C(=O)N[C@@H](CCC(N)=O)C(=O)N[C@@H](CCCNC(=N)N)C(=O)N[C@@H](CCCNC(=N)N)C(=O)N1C[C@@H](NC(=N)N)C[C@H]1C(=O)NCCC(N)=O (Ac-FG[Pro(cis-4-guanidino)]KKR[Pro(cis-4-guanidino)]QRR[Pro(cis-4-guanidino)][βAla]-NH2) |  | 135 nM | 13.2 µM (≈ 21.8 µg/mL) |  |  |  | 10600 nM | 36.3 µM (≈ 59.9 µg/mL) | ≥ 80% |  |  | 105 nM | 11.8 µM (≈ 19.5 µg/mL) | 500 nM | 21.1 µM (≈ 34.8 µg/mL) | 227 nM | 20.5 µM (≈ 33.9 µg/mL) | 92 nM | 12.6 µM (≈ 20.8 µg/mL)
